Data set [1] is described as follows: Fluorescence excitation and emission spectra (Perkin-Elmer LS-5B Luminescence Spectrometer). Type of data set: physicochemical. Conditions: 10 micromolar solution. The method, then: Excitation and emission spectra of a 10 micromolar solution of compounds IIa and IIb were determined using a Perkin-Elmer LS-5B Luminescence Spectrometer.
Data set [2] concerns mouse PAM 212 keratinocytes. Kind of data set: Growth inhibition of tumor cells in culture, Coulter Counter cell count after 5 days. Type of data set: cell-based. Conditions: PAM212, 120 h, read-out: IC50 of fused ring triazole (concentration inhibiting growth of cell line by 50%). The procedure:
(§1) Experiments were performed in accordance with the procedure described by Yurkow and Laskin (Cancer Chemother. Pharmacol. 1991 27:315-319). In these experiments, tumor cells were maintained in culture in growth medium consisting of Dulbecco's modified Eagle's medium (DMEM) supplemented with 10% fetal bovine. Tumor cells were plated at low density (5000 cells/well) in 6-well tissue culture dishes and allowed to adhere overnight. The medium was then replaced with phenol red-free DMEM supplemented with increasing concentrations of the compounds, with zero concentration of compound serving as the control. Six concentrations and a control were used for each inhibitor, and each concentration was tested in triplicate. After 5 days, cells were removed from the dishes and enumerated using a Coulter Counter (Coulter Electronics, Inc.). The controls and treated samples at each concentration were averaged. Data are presented as the percentage of control growth at each concentration of the compound, plus and minus the standard error. The IC50 for growth inhibition was the concentration of each compound that inhibited growth by 50%. These are depicted in Table 1.

Data set [3] concerns human HeLa cervical carcinoma. Described as above. Format: cell-based. Conditions: 120 h, read-out: IC50 of fused ring triazole (concentration inhibiting growth of cell line by 50%). The procedure:
as §1

Data set [4] concerns mouse B16 melanoma. The description is as above. Format: cell-based. Conditions: 120 h, read-out: IC50 of fused ring triazole (concentration inhibiting growth of cell line by 50%). The method, then: as §1
The test system of data set [5] is human CX-1 colon cells. The description is as above. Conditions: 120 h, read-out: IC50 of fused ring triazole (concentration inhibiting growth of cell line by 50%). Format: cell-based. The procedure: as §1

Each structure is given as a SMILES string.

In data set [1], `C1=Nn2c(nnc2-c2ccncc2)S/C1=C\c1ccccc1` [Compound IIa, 3-(4-pyridyl)-7-(phenylmethylene)-s-triazolo[3,4-b] [1,3,4]-thiadiazine] came in with an Emission peak of 358 nm. For the same compound, the IC50 in data set [2] stood at 10 µM; in data set [3], 4 µM; in data set [4] it was 9 µM; in data set [5], 17 µM.
In turn, `C1=Nn2c(nnc2-c2ccccn2)S/C1=C\c1ccccc1` [Compound IIb, 3-(2-pyridyl)-7-(phenylmethylene)-s-triazolo[3,4-b] [1,3,4]-thiadiazine] registered an Emission peak in data set [1] of 320 nm. This compound also showed an Excitation peaks in data set [1] of 249 nm. Besides, the IC50 in data set [2] was determined as 18 µM; in data set [3], 9 µM; in data set [4] it was 15 µM; in data set [5] it was 30 µM.
On to `C1=Nn2c(nnc2-c2cccs2)S/C1=C\c1ccccc1` [Compound IId, 3-(2-thienyl)-7-(phenylmethylene)-s-triazolo[3,4-b] [1,3,4]-thiadiazine], for which the IC50 in data set [2] worked out at 18 µM; in data set [3], 28 µM; in data set [4] it was 23 µM; in data set [5], 20 µM.

For the origin of these results see US20060270664A1, “Fluorescent fused-ring triazoles that inhibit cell proliferation and uses thereof” (priority 2004, published 2006).
